Drawing on patent publication US11963960B2 (Flash Therapeutics, LLC, priority 2020, dated 2024), this text covers IC50 for 30 compounds.

The test concerns the target N-terminally GST-tagged HCK (75-526) (Homo sapiens (Human), UniProt P08631). Kind of test: HCK Kinase Assay (ProFluor Src-Family Kinase Assay). Particulars: HCK inhibitory activity, 50 μM ATP; read-out: HCK Activity. The format is biochemical. The essentials: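 ProFluor Src-family format: after the kinase reaction, protease solution was added for 60 min at room temperature (22-25° C), then stabilizer.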

N-terminally GST-tagged HCK (75-526), sequence (P08631 75-526): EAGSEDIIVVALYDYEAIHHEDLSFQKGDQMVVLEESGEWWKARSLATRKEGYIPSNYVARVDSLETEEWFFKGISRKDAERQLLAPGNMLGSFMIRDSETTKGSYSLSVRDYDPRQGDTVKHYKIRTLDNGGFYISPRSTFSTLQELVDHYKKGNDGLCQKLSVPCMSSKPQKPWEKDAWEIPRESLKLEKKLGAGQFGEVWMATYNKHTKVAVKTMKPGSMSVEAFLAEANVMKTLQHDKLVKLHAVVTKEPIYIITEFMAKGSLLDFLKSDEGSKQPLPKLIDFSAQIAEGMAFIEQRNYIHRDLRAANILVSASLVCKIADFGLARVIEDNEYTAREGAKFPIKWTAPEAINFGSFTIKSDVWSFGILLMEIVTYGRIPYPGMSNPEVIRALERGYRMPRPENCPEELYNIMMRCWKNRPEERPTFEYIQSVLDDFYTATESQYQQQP

Consider `CN[C@@H]1CCCN([C@H]2CC[C@@H](n3cc(-c4ccc(Oc5ccccc5)cc4)c4c(N)ncnc43)CC2)C1` [Example 61, 7-((cis)-4-((R)-3-(methylamino)piperidin-1-yl)cyclohexyl)-5-(4-phenoxyphenyl)-7H-pyrrolo[2,3-d]pyrimidin-4-amine], for which the IC50 was less than 0.05 µM. As for `CN(C)[C@@H]1CCCN([C@H]2CC[C@H](n3cc(-c4ccc(Oc5ccccc5)cc4)c4c(N)ncnc43)CC2)C1` [Example 62, 7-((trans)-4-((R)-3-(dimethylamino)piperidin-1-yl)cyclohexyl)-5-(4-phenoxyphenyl)-7H-pyrrolo[2,3-d]pyrimidin-4-amine], the IC50 is less than 0.05 µM. As to `Nc1ncnc2c1c(-c1ccc(Oc3ccccc3)cc1)cn2[C@H]1CC[C@H](N2CCSCC2)CC1` [Example 63, 5-(4-phenoxyphenyl)-7-((trans)-4-thiomorpholinocyclohexyl)-7H-pyrrolo[2,3-d]pyrimidin-4-amine], the IC50 fell in the range of 0.25 to 10 µM. The same measure for `Nc1ncnc2c1c(-c1ccc(Oc3ccccc3)cc1)cn2[C@H]1CC[C@H](N2CCS(=O)(=O)CC2)CC1` [Example 65, 4-((trans)-4-(4-amino-5-(4-phenoxyphenyl)-7H-pyrrolo[2,3-d]pyrimidin-7-yl)cyclohexyl)thiomorpholine 1,1-dioxide]: 0.05 to 0.25 µM; for `Nc1ncnc2c1c(-c1ccc(Oc3ccccc3)cc1)cn2[C@H]1CC[C@@H](N2CCS(=O)(=O)CC2)CC1` [Example 66, 4-((cis)-4-(4-amino-5-(4-phenoxyphenyl)-7H-pyrrolo[2,3-d]pyrimidin-7-yl)cyclohexyl)thiomorpholine 1,1-dioxide]: 0.05 to 0.25 µM; for `CP1(=O)CCN([C@H]2CC[C@H](n3cc(-c4ccc(Oc5ccccc5)cc4)c4c(N)ncnc43)CC2)CC1` [Example 67, 1-((trans)-4-(4-amino-5-(4-phenoxyphenyl)-7H-pyrrolo[2,3-d]pyrimidin-7-yl)cyclohexyl)-4-methyl-1,4-azaphosphinane 4-oxide]: 0.05 to 0.25 µM. Consider `CP1(=O)CCN([C@H]2CC[C@@H](n3cc(-c4ccc(Oc5ccccc5)cc4)c4c(N)ncnc43)CC2)CC1` [Example 68, 1-((cis)-4-(4-amino-5-(4-phenoxyphenyl)-7H-pyrrolo[2,3-d]pyrimidin-7-yl)cyclohexyl)-4-methyl-1,4-azaphosphinane 4-oxide], for which the IC50 was less than 0.05 µM. As to `Nc1ncnc2c1c(-c1ccc(Oc3ccccc3)cc1)cn2[C@H]1CC[C@H](N2CCC(S(N)(=O)=O)CC2)CC1` [Example 69, 1-((trans)-4-(4-amino-5-(4-phenoxyphenyl)-7H-pyrrolo[2,3-d]pyrimidin-7-yl)cyclohexyl)piperidine-4-sulfonamide], the IC50 was 0.05 to 0.25 µM. To `Nc1ncnc2c1c(-c1ccc(Oc3ccccc3)cc1)cn2[C@H]1CC[C@@H](N2CCC(S(N)(=O)=O)CC2)CC1` [Example 70, 1-((cis)-4-(4-amino-5-(4-phenoxyphenyl)-7H-pyrrolo[2,3-d]pyrimidin-7-yl)cyclohexyl)piperidine-4-sulfonamide] belongs 0.05 to 0.25 µM. As to `CN(C)[C@H]1CN([C@H]2CC[C@H](n3cc(-c4ccc(Oc5ccccc5)cc4)c4c(N)ncnc43)CC2)C[C@H]1O` [Example 71, (3R,4S)-1-((trans)-4-(4-amino-5-(4-phenoxyphenyl)-7H-pyrrolo[2,3-d]pyrimidin-7-yl)cyclohexyl)-4-(dimethylamino)pyrrolidin-3-ol], the IC50 was less than 0.05 µM. Consider `CN(C)[C@H]1CN([C@H]2CC[C@@H](n3cc(-c4ccc(Oc5ccccc5)cc4)c4c(N)ncnc43)CC2)C[C@H]1O` [Example 72, (3R,4S)-1-((cis)-4-(4-amino-5-(4-phenoxyphenyl)-7H-pyrrolo[2,3-d]pyrimidin-7-yl)cyclohexyl)-4-(dimethylamino)pyrrolidin-3-ol], for which the IC50 was less than 0.05 µM. With `CN(C)[C@@H]1CN([C@H]2CC[C@H](n3cc(-c4ccc(Oc5ccccc5)cc4F)c4c(N)ncnc43)CC2)C[C@H]1O` [Example 73, (3R,4R)-1-((trans)-4-(4-amino-5-(2-fluoro-4-phenoxyphenyl)-7H-pyrrolo[2,3-d]pyrimidin-7-yl)cyclohexyl)-4-(dimethylamino)pyrrolidin-3-ol], the IC50 is less than 0.05 µM. To `CN(C)[C@@H]1CN([C@H]2CC[C@@H](n3cc(-c4ccc(Oc5ccccc5)cc4F)c4c(N)ncnc43)CC2)C[C@H]1O` [Example 74, (3R,4R)-1-((cis)-4-(4-amino-5-(2-fluoro-4-phenoxyphenyl)-7H-pyrrolo[2,3-d]pyrimidin-7-yl)cyclohexyl)-4-(dimethylamino)pyrrolidin-3-ol] belongs 0.05 to 0.25 µM; to `Nc1ncnc2c1c(-c1ccc(Oc3ccccc3)cc1)cn2[C@H]1CC[C@H](N2C[C@@H](O)[C@@H](O)C2)CC1` [Example 75, (3R,4S)-1-((trans)-4-(4-amino-5-(4-phenoxyphenyl)-7H-pyrrolo[2,3-d]pyrimidin-7-yl)cyclohexyl)pyrrolidine-3,4-diol], 0.05 to 0.25 µM; to `Nc1ncnc2c1c(-c1ccc(Oc3ccccc3)cc1)cn2[C@H]1CC[C@@H](N2C[C@@H](O)[C@@H](O)C2)CC1` [Example 76, (3R,4S)-1-((cis)-4-(4-amino-5-(4-phenoxyphenyl)-7H-pyrrolo[2,3-d]pyrimidin-7-yl)cyclohexyl)pyrrolidine-3,4-diol], 0.05 to 0.25 µM. As to `Nc1ncnc2c1c(-c1ccc(Oc3ccccc3)cc1)cn2[C@H]1CC[C@H](N2CC(N)C2)CC1` [Example 77, 7-((trans)-4-(3-aminoazetidin-1-yl)cyclohexyl)-5-(4-phenoxyphenyl)-7H-pyrrolo[2,3-d]pyrimidin-4-amine], the IC50 is less than 0.05 µM. For `Nc1ncnc2c1c(-c1ccc(Oc3ccccc3)cc1)cn2[C@H]1CC[C@@H](N2CC(N)C2)CC1` [Example 78, 7-((cis)-4-(3-aminoazetidin-1-yl)cyclohexyl)-5-(4-phenoxyphenyl)-7H-pyrrolo[2,3-d]pyrimidin-4-amine], the IC50 is 0.25 to 10 µM. As for `CN1CC2(C1)CN([C@H]1CC[C@H](n3cc(-c4ccc(Oc5ccccc5)cc4)c4c(N)ncnc43)CC1)C2` [Example 79, 7-((trans)-4-(6-methyl-2,6-diazaspiro[3.3]heptan-2-yl)cyclohexyl)-5-(4-phenoxyphenyl)-7H-pyrrolo[2,3-d]pyrimidin-4-amine], the IC50 was 0.05 to 0.25 µM. Turning to `CN1CC2(C1)CN([C@H]1CC[C@@H](n3cc(-c4ccc(Oc5ccccc5)cc4)c4c(N)ncnc43)CC1)C2` [Example 80, 7-((cis)-4-(6-methyl-2,6-diazaspiro[3.3]heptan-2-yl)cyclohexyl)-5-(4-phenoxyphenyl)-7H-pyrrolo[2,3-d]pyrimidin-4-amine], the IC50 is 0.25 to 10 µM. With `Nc1ncn([C@H]2CC[C@H](n3cc(-c4ccc(Oc5ccccc5)cc4)c4c(N)ncnc43)CC2)n1` [Example 81, 7-((trans)-4-(3-amino-1H-1,2,4-triazol-1-yl)cyclohexyl)-5-(4-phenoxyphenyl)-7H-pyrrolo [2,3-d]pyrimidin-4-amine], the IC50 was less than 0.05 µM. Regarding `Nc1ncn([C@H]2CC[C@@H](n3cc(-c4ccc(Oc5ccccc5)cc4)c4c(N)ncnc43)CC2)n1` [Example 82, 7-((cis)-4-(3-amino-1H-1,2,4-triazol-1-yl)cyclohexyl)-5-(4-phenoxyphenyl)-7H-pyrrolo[2,3-d]pyrimidin-4-amine], the IC50 was less than 0.05 µM.

Regarding `Nc1ncnc2c1c(-c1ccc(Oc3ccccc3)cc1)cn2[C@H]1CC[C@H](NC2CNC2)CC1` [Example 83, 7-((trans)-4-(azetidin-3-ylamino)cyclohexyl)-5-(4-phenoxyphenyl)-7H-pyrrolo[2,3-d]pyrimidin-4-amine], the IC50 was in the range of 0.05 to 0.25 µM.

Turning to `Nc1ncnc2c1c(-c1ccc(Oc3ccccc3)cc1)cn2[C@H]1CC[C@@H](NC2CNC2)CC1` [Example 84, 7-((cis)-4-(azetidin-3-ylamino)cyclohexyl)-5-(4-phenoxyphenyl)-7H-pyrrolo[2,3-d]pyrimidin-4-amine], the IC50 was 0.05 to 0.25 µM. For `Nc1ncnc2c1c(-c1ccc(Oc3ccccc3)cc1)cn2[C@H]1CC[C@H](NCc2n[nH]c(=O)[nH]2)CC1` [Example 85, 3-((((trans)-4-(4-amino-5-(4-phenoxyphenyl)-7H-pyrrolo[2,3-d]pyrimidin-7-yl)cyclohexyl)amino)methyl)-1H-1,2,4-triazol-5(4H)-one], the IC50 was less than 0.05 µM. To `CN1CCN([C@H]2CC[C@H](n3c(Br)c(-c4ccc(Oc5ccccc5)cc4)c4c(N)ncnc43)CC2)CC1` [Example 86, 6-Bromo-7-((trans)-4-(4-methylpiperazin-1-yl)cyclohexyl)-5-(4-phenoxyphenyl)-7H-pyrrolo[2,3-d]pyrimidin-4-amine] belongs 0.05 to 0.25 µM; to `CN1CCN([C@H]2CC[C@H](n3cc(-c4ccc(Oc5ccccc5)cc4)c4c(O)ncnc43)CC2)CC1` [Example 87, 7-((trans)-4-(4-Methylpiperazin-1-yl)cyclohexyl)-5-(4-phenoxyphenyl)-7H-pyrrolo[2,3-d]pyrimidin-4-ol], less than 0.05 µM; to `CC(C)(O)CN1CCN([C@H]2CC[C@H](n3cc(-c4ccc(Oc5ccccc5)cc4)c4c(N)ncnc43)CC2)CC1` [Example 89, 1-(4-((trans)-4-(4-amino-5-(4-phenoxyphenyl)-7H-pyrrolo[2,3-d]pyrimidin-7-yl)cyclohexyl)piperazin-1-yl)-2-methylpropan-2-ol], less than 0.05 µM.

Take `Nc1ncnc2c1c(-c1ccc(Oc3ccccc3)cc1)cn2[C@H]1CC[C@H](N2CCNCC2=O)CC1` [Example 90, 1-((trans)-4-(4-Amino-5-(4-phenoxyphenyl)-7H-pyrrolo[2,3-d]pyrimidin-7-yl)cyclohexyl)piperazin-2-one]: the IC50 is less than 0.05 µM. Consider `Nc1ncnc2c1c(-c1ccc(Oc3ccccc3)cc1)cn2[C@H]1CC[C@@H](N2CCNCC2=O)CC1` [Example 91, 1-((cis)-4-(4-Amino-5-(4-phenoxyphenyl)-7H-pyrrolo[2,3-d]pyrimidin-7-yl)cyclohexyl)piperazin-2-one], for which the IC50 lay in the range of 0.05 to 0.25 µM. Consider `Nc1ncnc2c1c(-c1ccc(Oc3ccccc3)cc1)cn2C1CCC2(CC1)OCC(N)CO2` (stereo not drawn) [Example 92, 7-(3-Amino-1,5-dioxaspiro[5.5]undecan-9-yl)-5-(4-phenoxyphenyl)-7H-pyrrolo [2,3-d]pyrimidin-4-amine], for which the IC50 was 0.05 to 0.25 µM.
